What was measured:
PTmAb0011 = assay: Phage display ranking of peptide ligands for PTmAb0011; assay type: binding, mouse; details: primary phage display biopannings (Table 7)
Excerpt: (§1) Phage display libraries were used to map the binding sites of the monoclonal antibodies using three different phage libraries, displaying either the XCX15, XCX10 or XAX10 peptide sequence (where X is any amino acid) at the N-terminus of the phage gVIIIp. Tables 6 and 7 show the results of selecting for peptide ligands with the anti human IgE monoclonal antibodies […]. […]
(§2) This involved a DNA sub-cloning transfer from the major coat protein (gVIIIp) filamentous phage display vector to a lower copy number minor phage coat protein (gIIIp) display vector with a random PCR step. […] Included in the tables are ranking orders and also BIAcore affinities where available.

PTmAb0005 = assay: Phage display ranking of peptide ligands for PTmAb0005; assay type: binding; details: primary phage display biopannings (Table 6)
Procedure: as §1
This was performed by introducing random mutations by PCR mutagenesis and sub-cloning into the Fuse 5 vector for minor filamentous phage protein gIIIp display. These, and other results, confirmed the importance of the amino acids within IgEC67 which aligned with the Cε2 epitope. […] Mutations in other sites had little effect on the affinity to PTmAb0005.
as §2

| Sequence | Rank (ECL) PTmAb0011 (PTmAb0011) | Rank (ECL) PTmAb0005 (PTmAb0005) |
| --- | --- | --- |
| HCEEPEYSPATRVFCGR [EEC51/48/53] | 75 | – |
| HCKNEFKKGQWTYSCSD [IgEC43] | – | 0 |
| HCQQVFFPQDYLWCQRG [EEC36] | 158 | – |
| KCPTYPKPNDRCLWPVP [EEC135] | 19 | – |
| MCQGWEIVSECW [EED57] | 0 | – |
| NCNDNPMLDCMPAWSS [EEC5] | 0 | – |
| NCQDQMLREDAGCWSKI [EEC40A] | 80 | – |
| QCVRDGTRKVCM [EED33] | 7 | – |
| QIDRQITDTLL [ESB15] | – | 0 |
| RCDQQLPRDSYTFCMMS [EEC115/3/48] | 438 | – |
| RCEQGALRCVGE [EED41/56] | 0 | – |
| RCQSARVVPECW [EED131/138/102] | 32 | – |
| REQQISDVPRV [ESB26] | – | 0 |
| RGRNQIMDLEI [ESB29/36] | – | 0 |
| SCAPSGDCGYKG [EED18/47/48] | 31 | – |
| SCNLNHQSCDIPPVKQI [ESC46] | – | 0 |
| SCQGREVRRECW [EED183] | 596 | – |
| SMEGQVRDIQV [ESB7] | – | 0 |
| SMGQEVDRELV [ESB40] | – | 0 |
| SMGQKVDRELV [ESB9] | – | 0 |
| TCCVTDIPPPDYEQSLG [IgEC83] | – | 0 |
| TCGQSELRCASLETHHV [EEC55] | 0 | – |
| TCLVDRQESDVC [EED50] | 6 | – |
| VCDECVSRELAL [EED35/53/164] | 330 | – |
| VCDECVSRELAL [EED35/153/164] | 118 | – |
| VCPPGWKNLGCN [EED51] | 0 | – |
| WCLEPECAPGLL [EED38] | 330 | – |
| YCPKYPLEGDCLLDNDY [EEC116] | 4 | – |
| YQQRDLELLAE [ESB18] | – | 0 |
